Results from the supplement of paper PMC10307832.

What follows are cell lines tested with CCOC1=CC=CC=C1N=NC2=C(NN(C2=O)C3=NC(=CS3)C4=CC=CC=C4)C [BAM7] + COc1cc2c(Oc3ccc(NC(=O)C4(C(=O)Nc5ccc(F)cc5)CC4)cc3F)ccnc2cc1OCCCN1CCOCC1 [Foretinib] (partner 0.25 µM) (assay: relative viability (nuclei count vs DMSO), 5 days (fraction); higher = more cells survive). Conditions: first compound 0.5 µM.
Summary of the method: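 Values are medians from duplicate plates. Each reflects relative viability, defined as the nuclei count of treated wells over that of vehicle wells. Lung cancer cell lines in 1536-well plates were pin-tool dosed one day after seeding with one drug alone or with a fixed anchor-drug dose plus five library-drug doses (not always all listed) in √10 steps, then fixed, stained and imaged at 4× after 5 days.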
With NCI-H1623 the relative viability was 0.905.
NCI-H727 showed a relative viability of 0.851.
NCI-H1650 was tested, and the relative viability was 1.34.
EBC-1 showed a relative viability of 0.0974.
For NCI-H1703, the relative viability was 0.329.
NCI-H1993 showed a relative viability of 0.73.
SW 1573 gave a relative viability of 0.939.
For NCI-H838, the relative viability was 1.08.
LCLC-103H gave a relative viability of 0.693.
For NCI-H520, the relative viability was 0.736.
NCI-H2126 gave a relative viability of 1.18.
Work on EMC-BAC-2 yielded a relative viability of 0.974.
In the case of NCI-H2085, the relative viability is reported as 0.973.
Calu-6 gave a relative viability of 0.939.
In the case of HCC-366, the relative viability is reported as 0.92.
Cell Line NCI-H1666 has a relative viability of 0.945.
Cell Line NCI-H596 has a relative viability of 0.874.
With LK-2 the relative viability was 1.15.
With NCI-H2087 the relative viability was 1.18.
NCI-H2342 was tested, and the relative viability was 1.01.
SK-MES-1 showed a relative viability of 0.913.
H3255 gave a relative viability of 0.774.
COR-L23 showed a relative viability of 0.891.
Cell Line COR-L 105 has a relative viability of 0.957.
For IA-LM, the relative viability was 1.36.
For LOU-NH91, the relative viability was 0.913.
In the case of ChaGo-K-1, the relative viability is reported as 0.806.
Work on NCI-H2170 yielded a relative viability of 0.973.
NCI-H2405 was tested, and the relative viability was 1.04.
With HOP-62 the relative viability was 1.25.
Cell Line A549 has a relative viability of 1.
SW 900 showed a relative viability of 0.933.
LU99A was tested, and the relative viability was 0.787.
In the case of BEN, the relative viability is reported as 0.694.
HARA was tested, and the relative viability was 0.913.
For NCI-H2009, the relative viability was 1.28.
Work on NCI-H661 yielded a relative viability of 1.02.
Cell Line SK-LU-1 has a relative viability of 0.875.
Cell Line NCI-H1299 has a relative viability of 1.07.
With NCI-H2228 the relative viability was 1.04.
Cell Line NCI-H2023 has a relative viability of 0.925.
For NCI-H1563, the relative viability was 0.898.

Same assay, conditions: first compound 5 µM
Work on NCI-H1623 yielded a relative viability of 0.831.
NCI-H727 showed a relative viability of 1.19.
Work on NCI-H1650 yielded a relative viability of 1.2.
EBC-1 was tested, and the relative viability was 0.103.
NCI-H1703 was tested, and the relative viability was 0.42.
NCI-H1993 showed a relative viability of 0.738.
Work on SW 1573 yielded a relative viability of 0.997.
With NCI-H838 the relative viability was 1.22.
Cell Line LCLC-103H has a relative viability of 0.741.
Work on NCI-H520 yielded a relative viability of 0.825.
In the case of NCI-H2126, the relative viability is reported as 1.05.
With EMC-BAC-2 the relative viability was 1.04.
Cell Line NCI-H2085 has a relative viability of 1.18.
With Calu-6 the relative viability was 0.951.
HCC-366 gave a relative viability of 0.849.
In the case of NCI-H1666, the relative viability is reported as 1.1.
NCI-H596 showed a relative viability of 0.883.
For LK-2, the relative viability was 1.23.
Work on NCI-H2087 yielded a relative viability of 1.23.
For NCI-H2342, the relative viability was 1.04.
Cell Line SK-MES-1 has a relative viability of 1.06.
Cell Line H3255 has a relative viability of 0.868.
COR-L23 gave a relative viability of 1.01.
In the case of COR-L 105, the relative viability is reported as 1.24.
For IA-LM, the relative viability was 1.2.
LOU-NH91 showed a relative viability of 1.03.
Work on ChaGo-K-1 yielded a relative viability of 0.928.
NCI-H2170 showed a relative viability of 0.994.
NCI-H2405 gave a relative viability of 1.12.
For HOP-62, the relative viability was 1.2.
For A549, the relative viability was 1.1.
Work on SW 900 yielded a relative viability of 0.755.
For LU99A, the relative viability was 0.888.
Cell Line BEN has a relative viability of 0.639.
With HARA the relative viability was 0.833.
Cell Line NCI-H2009 has a relative viability of 1.33.
In the case of NCI-H661, the relative viability is reported as 1.08.
SK-LU-1 was tested, and the relative viability was 0.925.
Work on NCI-H1299 yielded a relative viability of 1.18.
With NCI-H2228 the relative viability was 0.964.
In the case of NCI-H2023, the relative viability is reported as 0.783.
NCI-H1563 showed a relative viability of 0.82.

Same assay, conditions: first compound 15.81 µM
For NCI-H1623, the relative viability was 0.689.
NCI-H727 gave a relative viability of 0.864.
In the case of NCI-H1650, the relative viability is reported as 1.01.
EBC-1 gave a relative viability of 0.0984.
Work on NCI-H1703 yielded a relative viability of 0.393.
NCI-H1993 gave a relative viability of 0.717.
SW 1573 was tested, and the relative viability was 1.04.
NCI-H838 showed a relative viability of 0.985.
In the case of LCLC-103H, the relative viability is reported as 0.739.
NCI-H520 was tested, and the relative viability was 0.767.
With NCI-H2126 the relative viability was 0.889.
In the case of EMC-BAC-2, the relative viability is reported as 0.985.
With NCI-H2085 the relative viability was 0.743.
Calu-6 gave a relative viability of 0.891.
HCC-366 gave a relative viability of 0.94.
NCI-H1666 showed a relative viability of 0.996.
NCI-H596 showed a relative viability of 0.762.
LK-2 was tested, and the relative viability was 1.18.
NCI-H2087 showed a relative viability of 0.995.
In the case of NCI-H2342, the relative viability is reported as 0.921.
Work on SK-MES-1 yielded a relative viability of 0.937.
H3255 gave a relative viability of 0.806.
With COR-L23 the relative viability was 0.897.
COR-L 105 showed a relative viability of 0.937.
IA-LM showed a relative viability of 1.03.
LOU-NH91 gave a relative viability of 0.904.
ChaGo-K-1 showed a relative viability of 0.724.
In the case of NCI-H2170, the relative viability is reported as 0.91.
Cell Line NCI-H2405 has a relative viability of 1.02.
With HOP-62 the relative viability was 1.05.
In the case of A549, the relative viability is reported as 0.93.
Cell Line SW 900 has a relative viability of 0.774.
LU99A gave a relative viability of 0.828.
In the case of BEN, the relative viability is reported as 0.634.
Work on HARA yielded a relative viability of 0.779.
NCI-H2009 showed a relative viability of 1.26.
Cell Line NCI-H661 has a relative viability of 0.964.
SK-LU-1 showed a relative viability of 0.72.
Cell Line NCI-H1299 has a relative viability of 1.08.
NCI-H2228 gave a relative viability of 0.879.
Work on NCI-H2023 yielded a relative viability of 0.803.
NCI-H1563 showed a relative viability of 0.868.

Same assay, conditions: first compound 50 µM
Cell Line NCI-H1623 has a relative viability of 0.786.
Work on NCI-H727 yielded a relative viability of 0.801.
NCI-H1650 gave a relative viability of 1.04.
Work on EBC-1 yielded a relative viability of 0.102.
NCI-H1703 gave a relative viability of 0.326.
NCI-H1993 was tested, and the relative viability was 0.708.
Cell Line SW 1573 has a relative viability of 0.966.
NCI-H838 gave a relative viability of 0.989.
In the case of LCLC-103H, the relative viability is reported as 0.777.
With NCI-H520 the relative viability was 0.804.
Cell Line NCI-H2126 has a relative viability of 0.923.
EMC-BAC-2 showed a relative viability of 1.05.
NCI-H2085 gave a relative viability of 1.19.
In the case of Calu-6, the relative viability is reported as 0.893.
HCC-366 showed a relative viability of 0.836.
NCI-H1666 was tested, and the relative viability was 1.06.
In the case of NCI-H596, the relative viability is reported as 0.951.
LK-2 was tested, and the relative viability was 1.29.
With NCI-H2087 the relative viability was 1.12.
NCI-H2342 was tested, and the relative viability was 1.03.
In the case of SK-MES-1, the relative viability is reported as 1.08.
With H3255 the relative viability was 0.858.
COR-L23 was tested, and the relative viability was 0.981.
COR-L 105 gave a relative viability of 0.979.
For IA-LM, the relative viability was 1.21.
In the case of LOU-NH91, the relative viability is reported as 0.936.
ChaGo-K-1 showed a relative viability of 0.983.
NCI-H2170 was tested, and the relative viability was 1.
NCI-H2405 gave a relative viability of 1.04.
